According to patent publication US11214803B2, “Modulators of YAP1 expression” (Ionis Pharmaceuticals, Inc., priority 2019, dated 2022):
Strand notation (5' to 3'): a small letter for the sugar, then the base; units joined by * are phosphorothioate-linked, units joined directly phosphodiester-linked; [ ] holds rarer units or linkages, { } end groups; capitals alone tell only the bases. k = constrained ethyl (cEt); [5mC] = 5-methylcytosine; d = 2'-deoxy (DNA)

Test system: Yap1 mRNA
Test: Antisense inhibition of human Yap1 in A-431 cells by cEt gapmers, single dose (Example 1, RTS4814)
Type: cell-based
Procedure: Modified oligonucleotides were designed to target a Yap1 nucleic acid and were tested for their effect on Yap1 mRNA level in vitro. The modified oligonucleotides were tested in a series of experiments that had similar culture conditions. Cultured A-431 cells at a density of 5,000 cells per well were treated using free uptake with 2,000 nM of modified oligonucleotide. After a treatment period of approximately 48 hours, RNA was isolated from the cells and Yap1 mRNA levels were measured by quantitative real-time RTPCR. Human primer probe set RTS4814 (forward sequence […], designated herein as SEQ ID NO.: 11; reverse sequence […], designated herein as SEQ ID NO.: 12; probe sequence […], designated herein as SEQ ID NO.: 13) was used to measure mRNA levels. Yap1 mRNA levels were normalized to total RNA content, as measured by RIBOGREEN®. Results are presented in the tables below as percent control of the amount of Yap1 mRNA relative to untreated control cells (% UTC). The modified oligonucleotides with percent control values marked with an asterisk (*) target the amplicon region of the primer probe set. Additional assays may be used to measure the potency and efficacy of the modified oligonucleotides targeting the amplicon region.
The newly designed modified oligonucleotides in the Tables below were designed as 3-10-3 cEt gapmers. The gapmers are 16 nucleosides in length, wherein the central gap segment comprises of ten 2′-deoxynucleosides and is flanked by wing segments on the 5′ direction and the 3′ direction comprising three nucleosides each. Each nucleoside in the 5′ wing segment and each nucleoside in the 3′ wing segment has a cEt sugar modification. The internucleoside linkages throughout each gapmer are phosphorothioate (P═S) linkages. All cytosine residues throughout each gapmer are 5-methylcytosines.
“Start site” indicates the 5′-most nucleoside to which the gapmer is targeted in the human gene sequence. “Stop site” indicates the 3′-most nucleoside to which the gapmer is targeted human gene sequence. […] Activity of the modified oligonucleotide may be defined in a different experiment.

[1] = Table 2, A-431 cells, free uptake, 2,000 nM, approximately 48 hours, RTS4814, Yap1 mRNA relative to untreated control cells
[2] = Table 1, A-431 cells, free uptake, 2,000 nM, approximately 48 hours, RTS4814, Yap1 mRNA relative to untreated control cells
[3] = A-431 cells, 5,000 cells per well, free uptake, 2,000 nM modified oligonucleotide, approx. 48 hours, RTS4814, normalized to RIBOGREEN, Table 3

Row | Substance | YAP1 (% UTC) [1] | YAP1 (% UTC) [2] | other results
1 | 715596 (antisense kG*kT*kT*d[5mC]*dA*dT*dG*dG*d[5mC]*dT*dG*dA*dA*kA*kT*kG) [Compound 715596] | 104 % UTC | – | –
2 | 715599 (antisense kT*kT*k[5mC]*d[5mC]*d[5mC]*dA*dA*dG*d[5mC]*dT*dA*d[5mC]*d[5mC]*k[5mC]*kA*kA) [Compound 715599] | 82 % UTC | – | –
3 | 715466 (antisense k[5mC]*kA*kA*dG*dG*dT*d[5mC]*d[5mC]*dA*d[5mC]*dA*dT*dT*kT*kG*kT) [Compound 715466] | – | 83 % UTC | –
4 | 715427 (k[5mC]*k[5mC]*kA*dT*d[5mC]*d[5mC]*dA*dT*d[5mC]*dA*dG*dG*dA*kA*kG*kA; antisense) [Compound 715427] | – | 90 % UTC | –
5 | 715452 (antisense kG*kT*k[5mC]*dA*dT*dT*dG*dT*dT*d[5mC]*dT*d[5mC]*dA*kA*kT*kT) [Compound 715452] | 71 % UTC | – | –
6 | 715409 (k[5mC]*kA*kG*dT*dA*d[5mC]*dT*dG*dG*d[5mC]*d[5mC]*dT*dG*kT*k[5mC]*kG; antisense) [Compound 715409] | – | 76 % UTC | –
7 | 715548 (kA*kG*kT*dT*dG*dT*dT*dG*dA*d[5mC]*d[5mC]*dA*dA*k[5mC]*kT*kA; antisense) [Compound 715548] | 117 % UTC | – | –
8 | 715443 (antisense kT*kT*k[5mC]*dA*d[5mC]*dT*dG*dG*dA*dG*d[5mC]*dA*d[5mC]*kT*k[5mC]*kT) [Compound 715443] | 40 % UTC | – | –
9 | 715446 (antisense kA*kT*kT*d[5mC]*d[5mC]*dT*dG*dA*dG*dA*d[5mC]*dA*dT*k[5mC]*k[5mC]*k[5mC]) [Compound 715446] | 81 % UTC | – | –
10 | 715528 (kA*kA*kA*d[5mC]*d[5mC]*dT*dG*dA*dT*d[5mC]*d[5mC]*dT*dT*kT*kG*kA; antisense) [Compound 715528] | – | – | YAP1 (% UTC) [3]: 98 % UTC
11 | 715436 (antisense kT*kG*kG*d[5mC]*dA*dA*dA*dA*d[5mC]*dG*dA*dG*dG*kG*kT*k[5mC]) [Compound 715436] | – | 126 % UTC | –
12 | 715609 (antisense kT*kG*kT*dG*dT*dA*dG*dG*d[5mC]*dT*dG*dA*d[5mC]*kT*kT*kA) [Compound 715609] | – | – | YAP1 (% UTC) [3]: 56 % UTC
13 | 715571 (kA*kA*kA*dA*dT*d[5mC]*d[5mC]*dT*dG*d[5mC]*d[5mC]*dA*dA*k[5mC]*kA*kT; antisense) [Compound 715571] | – | 127 % UTC | –
14 | 715586 (kA*kA*kA*dA*dG*dG*dT*d[5mC]*dT*dG*dG*dA*dA*k[5mC]*kA*kG; antisense) [Compound 715586] | – | 53 % UTC | –
15 | 715512 (antisense kA*kG*kG*d[5mC]*dG*d[5mC]*dG*d[5mC]*dG*d[5mC]*dA*dT*dT*kG*kT*kG) [Compound 715512] | 97 % UTC | – | –
